The assay addresses MAD2L2-Rev1 complex (Homo sapiens, UniProt Q9UI95). In words: Proximity ligation assay (PLA) of MAD2L2-Rev1 binding. In kind it is cell-based. Here is the method: FIG. 16 is a bar graph showing that c #3 reduces Rev1-MAD2L2 interaction. PLA on cells treated with 10 μM cisplatin and 100 μM of c #3 for 24 h. In each analyzed field, cells and foci were counted separately and the ratio of foci/cell was calculated. Each dot represents the average of foci/cell in one analyzed field. SD=1. The P-value was calculated by a one-tailed t-test.
#3 disturbs MAD2L2-Rev1 complex formation. Detection of MAD2L2-Rev1 binding using the proximity ligation assay (PLA), which allows endogenous detection of protein-protein interactions. To enrich for MAD2L2-Rev1 foci, cells were co-treated with 10 μM cisplatin and 100 μM c #3 for 24h. Next, the PLA reaction was performed and foci, representing the MAD2L2-Rev1 complex, were counted.

The structures appear in SMILES notation.

MAD2L2-Rev1 complex, sequence (Q9UI95 whole entry, one chain of several): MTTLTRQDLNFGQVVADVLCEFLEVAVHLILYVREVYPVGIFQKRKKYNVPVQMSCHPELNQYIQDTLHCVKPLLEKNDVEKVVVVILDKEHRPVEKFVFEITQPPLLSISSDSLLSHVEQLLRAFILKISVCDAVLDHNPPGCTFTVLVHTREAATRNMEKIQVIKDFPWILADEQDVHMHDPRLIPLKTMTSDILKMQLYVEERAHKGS

Regarding `Cc1oc(-c2ccco2)nc1CC(=O)N[C@@H](C(=O)O)c1ccccc1` [Compound 3], the “ratio of MAD2L2-Rev1 PLA foci per cell, co-treatment” value (10 μM cisplatin + 100 μM c #3, 24 h, compared to cisplatin alone) is recorded as “reduced ratio of foci per cell”. Besides, for the setting “c #3 alone compared to DMSO”, the “MAD2L2-Rev1 complex formation (PLA), c #3 alone” value is “no effect on complex formation when DNA-damage is not induced”.

The values are drawn from patent US20250255876A1, “COMPOSITIONS AND METHODS FOR CANCER TREATMENT” (ARIEL SCIENTIFIC INNOVATIONS LTD., priority 2021, published 2025).
